Patent US4738954A, “Novel N^6 -substituted-5'-oxidized adenosine analogs” (Warner-Lambert Company, priority 1985, dated 1988)

Experiments:
adenosine A2 receptor = target: T1, adenosine A2 receptor (Rattus norvegicus, UniProt P30543); experiment: Adenosine Receptor Binding--A2 Receptor Affinity (RBA2), [3H]NECA displacement; format: rat (Sprague-Dawley striatal membranes); settings: 4 nM [3H]NECA + 50 nM N6-cyclopentyladenosine, rat striatum, 25° C, 60 min; read-out: RBA-2 (IC50, A2 receptor affinity)
T1 construct: Brains were thawed and then kept on ice while the striata were dissected out; tissue Pel-Freez (Rogers, Arkansas) (rat brains); host or cells: rat striatum, membranes
T1 sequence (P30543 whole entry): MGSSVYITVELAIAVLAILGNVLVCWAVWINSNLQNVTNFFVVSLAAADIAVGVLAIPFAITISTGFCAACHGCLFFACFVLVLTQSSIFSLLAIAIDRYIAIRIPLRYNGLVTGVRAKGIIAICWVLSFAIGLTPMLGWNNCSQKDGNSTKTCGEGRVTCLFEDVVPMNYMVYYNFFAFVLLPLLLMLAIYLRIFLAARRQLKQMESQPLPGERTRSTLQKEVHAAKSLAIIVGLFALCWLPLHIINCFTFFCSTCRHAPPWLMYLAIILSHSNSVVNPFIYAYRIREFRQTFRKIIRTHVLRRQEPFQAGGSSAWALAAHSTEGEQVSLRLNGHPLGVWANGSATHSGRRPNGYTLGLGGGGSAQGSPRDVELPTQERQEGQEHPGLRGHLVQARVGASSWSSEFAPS
Procedure: Adenosine Receptor Binding--A2 Receptor Affinity (RBA2)
Brains from 200-500 g mixed sex Sprague-Dawley rats were purchased from Pel-Freez (Rogers, Arkansas). Fresh brains from male Long-Evans hooded rats (Blue Spruce Farms, Altamont, NY) gave essentially identical results. Brains were thawed and then kept on ice while the striata were dissected out. Striata were disrupted in 10 vol of ice-cold 50 mM Tris.HCl (pH 7.7 at 25° C., pH 8.26 at 5° C.) (Tris) for 30 seconds in a Polytron PT-10 (Brinkmann) at setting 5. The suspension was centrifuged at 50,000×g for ten minutes, the supernatant discarded, the pellet resuspended in 10 vol ice-cold Tris as above, recentrifuged, resuspended at 1 g/5 ml, and stored in plastic vials at -70° C. (stable for at least six months). When needed, tissue was thawed at room temperature, disrupted in a Polytron, and kept on ice until used.
All incubations were for 60 minutes at 25° C. in 12×75 mm glass tubes containing 1 ml Tris with 5 mg original tissue weight of rat weight of rat striatal membranes, 4 nM [^3 H]-N-ethyl adenosine-5'-carboxamide ([^3 H]NECA), 50 nM N^6 -cyclopentyladenosine (to eliminate A1 receptor binding), 10 mM MgCl2, 0.1 units/ml of adenosine deaminase and 1% dimethylsulfoxide. N^6 -Cyclopentyladenosine was dissolved at 10 mM in 0.02N HCl and diluted in Tris. Stock solutions and dilutions of N^6 -cyclopentyladenosine could be stored at -20° C. for several months. Test compounds were dissolved at 10 mM in dimethylsulfoxide on the same day as the experiment, and diluted in dimethylsulfoxide to 100× the final incubation concentration. Control incubations received an equal volume (10 μl) of dimethylsulfoxide; the resulting concentration of dimethylsulfoxide had no effect on binding. [^3 H]NECA was diluted to 40 nM in Tris. The membrane suspension (5 mg/0.79 ml) contained sufficient MgCl2 and adenosine deaminase to give 10 mM and 0.1 units/ml, respectively, final concentration in the incubation. […] After all additions, the rack of tubes was vortexed, and the tubes were then incubated for 60 min at 25° C. in a shaking water bath. The rack of tubes was vortexed an additional time halfway through the incubation.
Incubations were terminated by filtration through 2.4 cm GF/B filters under reduced pressure. Each tube was filtered as follows: the contents of the tube were poured on the filter, 4 ml of ice-cold Tris were added to the tube and the contents poured onto the filter, and the filter was washed twice with 4 ml of ice-cold Tris. The filtration was complete in about twelve seconds. Filters were put in scintillation vials, 8 ml of Formula 947 scintillation fluid added, and the vials left overnight, shaken, and counted in a liquid scintillation counter at 40% efficiency.
Nonspecific binding was defined as binding in the presence of 100 μM N^6 -cyclopentyladenosine, and specific binding was defined as total binding minus nonspecific binding. The IC50 was calculated by weighted nonlinear least squares curve-fitting to the mass-action equation. [formula] where Y is cpm bound
T is cpm total binding without drug
S is cpm specific binding without drug
D is the concentration of drug and
K is the IC50 of the drug
Weighting factors were calculated under the assumption that the standard deviation was proportional to the predicted value of Y. Nonspecific binding was treated as a very large (infinite) concentration of drug in the computer analysis.

[1] = test system: mean arterial blood pressure and heart rate in the conscious rat; experiment: Antihypertensive evaluation (AHP3): aortic blood pressure and heart rate from conscious rats; format: in vivo
Excerpt: ANTIHYPERTENSIVE EVALUATION (AHP3)
This test procedure is described in the following paragraphs.
A Method for the Direct Monitoring of Aortic Blood Pressure and Heart Rate from Conscious Rats
The continous monitoring of pulsatile blood pressure (BP) from unrestrained conscious rats surgically equipped with polyethylene cannulas was accomplished by means of a computer assisted data capture scheme (CADCS). The basic elements of the methodology are the cannulation procedure and the CADCS.
Rats were anesthetized with Telazol (1:1 tiletamine HCl and zolazepam HCl); 20-40 mg/kg IM and the descending aorta exposed via a midline incision. Cannulas fabricated from polyethylene tubing were inserted into the aorta via an undersized puncture hole below the renal arteries. The puncture hole was made by a 23 G disposable needle with a section of the aorta clamped off above and below the puncture site. The cannulas, consisting of a PE100 (0.86 mm ID) body and a PE50 (0.58 mm ID) tip, were attached to a trocar, inserted through the psoas muscle, and passed subcutaneously along the midline of the back and externalized between the ears. The cannulas were anchored to the psoas muscle and between the scalulae (3-0 green braided suture). The midline incision was closed in two steps (muscle first, skin second) using contiuous over-and over sutures (4-0 chronic). Each rat was then given penicillin 30,000 units subcutaneously (Penicilling G Procaine Sterile Suspension).
The rats were fitted with a harness-spring-swivel assembly designed to protect the cannula and to provide the rat relative freedom of movement. The harnesses were fabricated from nylon hook and loop tape cemented to a metal plate to which spring wires (18-8 stainless steel) were attached to brass swivels. Each polyethylene cannula was channeled through a spring and connected through a swivel to a pressure transducer (Model P23Gb; Statham Instruments; Hato Rey, Puerto Rico) and an infusion pump (Sage model 234-7; Orion Research, Cambridge, MA) by means of PE100 tubing. While on test, each rat received a continuous slow infusion of heparinized saline solution (approximately […] or 40 units of heparin per 24 hours period) to prevent clot formation. Additional "flushes" of the cannula with heparinized saline were carried out when the aortic pluse pressure (systolic minus diastolic) was less than 25 mm Hg.
The pulsatile blood pressure and heart rate of each of 32 rats was monitored every minute by means of two in-laboratory microcomputers communicating directly with a data concentrator computer. The data were first stored on the data concentrator disk and then transferred to a magnetic tape for analysis and report generation by the main research computer. […]

Compound | IC50 (adenosine A2 receptor) | MAP (mean arterial pressure) change ([1]; 10 mg/kg, hour 3, conscious rat) | HR (heart rate) change ([1]; 1 mg/kg, hour 5, conscious rat) | MAP (mean arterial pressure) change ([1]; 1 mg/kg, hour 5, conscious rat) | MAP (mean arterial pressure) change ([1]; 10 mg/kg, hour 5, conscious rat)
CCOC(=O)[C@H]1O[C@@H](n2cnc3c(NC4CC5CCC4C5)ncnc32)[C@H](O)[C@@H]1O (relative stereo) [Example 8, N-6-Norbornyl-adenosine-5'ethylcarboxylate] | 12400 nM | 0% | – | – | –
CCOC(=O)[C@H]1O[C@@H](n2cnc3c(NCC(c4ccccc4)c4ccccc4)ncnc32)[C@H](O)[C@@H]1O [Example 5, N6-(2,2-diphenylethyl)-5-adenosine-5'-ethylcarboxylate] | 468 nM | – | – | – | 0%

Now those with a lower IC50 (adenosine A2 receptor), led by results:

IC50 (adenosine A2 receptor) | Compound | MAP (mean arterial pressure) change ([1]; 10 mg/kg, hour 3, conscious rat) | HR (heart rate) change ([1]; 1 mg/kg, hour 5, conscious rat) | MAP (mean arterial pressure) change ([1]; 1 mg/kg, hour 5, conscious rat) | MAP (mean arterial pressure) change ([1]; 10 mg/kg, hour 5, conscious rat)
70 nM | CCNC(=O)[C@H]1O[C@@H](n2cnc3c(N[C@H](C)Cc4ccccc4)ncnc32)[C@H](O)[C@@H]1O [Example 1, (R)-N-6-[(2-phenyl-1-methyl)ethyl]-adenosine-5'-ethylcarboxamide] | – | – | – | –
25 nM | CCNC(=O)[C@H]1O[C@@H](n2cnc3c(NCC(c4ccccc4)c4ccccc4)ncnc32)[C@H](O)[C@@H]1O [Example 3, N^6-(2,2-diphenylethyl)-adenosine-5'-ethylcarboxamide] | – | 0% | 0% | –
8 nM | CCNC(=O)[C@H]1O[C@@H](n2cnc3c(NCc4cccc5ccccc45)ncnc32)[C@H](O)[C@@H]1O [Example 6, N-6-Naphthylmethyladenosine-5'-ethylcarboxamide] | – | – | – | –
